Results from US20090233950A1, “QUINAZOLINE DERIVATIVES” (priority 2006, published 2009).

Tests used:
[1] = molecular target: T1, PDGFRβ (Homo sapiens, UniProt P09619); assay: In vitro phospho-Tyr751 PDGFRβ ELISA assay (Test (b)), MG63 osteosarcoma cells stimulated with PDGFBB; assay type: cell-based; settings: read-out: IC50 versus phospho-Tyr751 formation in PDGFRβ
T1 construct: endogenous in cells; host or cells: MG63 osteosarcoma cells (ATCC)
Protocol: (b) In Vitro phospho-Tyr751 PDGFRβ ELISA Assay
This assay uses a conventional ELISA method to determine the ability of test compounds to inhibit phosphorylation of tyrosine in PDGFRβ.
An MG63 osteosarcoma cell line [American Type Culture Collection (ATCC) CCL 1427] was routinely maintained at 37° C. with 7.5% CO2 in Dulbecco's modified Eagle's growth medium (DMEM; Sigma-Aldrich; Catalogue No. D6546) containing 10% foetal calf serum (FCS; Sigma-Aldrich; Catalogue No. F7524) and 2 mM L-glutamine (Invitrogen Ltd., Paisley, UK; Catalogue No. 25030-024).
For the assay, the cells were detached from the culture flask using a trypsin/ethylenediaminetetraacetic acid (EDTA) mixture (Invitrogen Ltd.; Catalogue No. 15400-054) and resuspended in a test medium comprising DMEM without phenol red (Sigma-Aldrich; Catalogue No. D5921) containing 1% charcoal-stripped foetal calf serum (FCS) (Sigma-Aldrich; Catalogue No. F7524, stripped by incubation with dextran-coated activated charcoal at 55° C. for 30 minutes with continuous stirring followed by removal of the charcoal by centrifugation and filter sterilisation) and 2 mM L-glutamine (Invitrogen Ltd., Catalogue No. 25030-024) to give 6×10^4 cells per ml. Aliquots (100 μl) were seeded into each of the wells of columns […] (excluding column 1) and rows B-G (excluding rows A and H) of a clear 96 well tissue culture plate (Corning Life Sciences, Koolhovenlaan, The Netherlands; Catalogue No. 3595) to give a density of about 6000 cells per well. Aliquots (100 μl) of culture media were placed in the outer wells to minimise edge effects. The cells were incubated overnight at 37° C. with 7.5% CO2 to allow the cells to adhere to the wells.
Test compounds were prepared as 10 mM stock solutions in DMSO and serially diluted as required with DMSO to give a range of concentrations. Aliquots (3 μl) of each compound concentration were added to test medium (300 μl) to create a second dilution range. Aliquots (16 μl) of each resultant compound concentration were added to the cells in each well. “Maximum” control cells received a dilution of DMSO plus test medium only. “Minimum” control cells received a reference PDGFR inhibitor (16 μl). The cells were incubated for 90 minutes at 37° C. with 7.5% CO2.
The resultant cells were stimulated with PDGFBB using the following procedure. A lyophilised powder of PDGFBB, (Sigma-Aldrich; Catalogue No. P4306) was mixed with sterile water to provide a stock solution of 10 μg/ml of PDGFBB. A dilution of this stock solution into test medium provided a 182 ng/ml PDGFBB solution. Aliquots thereof (44 μl) were added to compound treated cells and to the “Maximum” control cells. The “Minimum” control cells received medium only. The cells were incubated at 37° C. with 7.5% CO2 for 5 minutes. The solution from the wells was removed and the cells were lysed by the addition of 120 μl/well of RIPA buffer comprising 60 mM tris(hydroxymethyl)aminomethane hydrochloride (Tris-HCl), 150 mM sodium chloride, 1 mM EDTA, 1% v/v Igepal CA-630, 0.25% sodium deoxycholate, 1% v/v phosphatase inhibitor cocktail 1 P2850, 1% phosphatase inhibitor cocktail 2 P5726 and 0.5% v/v protease inhibitor cocktail P8340 (all chemicals and inhibitor cocktails were obtainable from the Sigma-Aldrich Company Ltd.). The resultant tissue culture plates were shaken for 5 minutes at ambient temperature to ensure full lysis and then frozen at −20° C. until required. […]

[2] = molecular target: T2, KDR (VEGFR2) (Homo sapiens, UniProt P35968); assay: In vitro phospho-KDR ELISA assay (Test (c)), HUVECs stimulated with VEGF; assay type: cell-based; settings: read-out: IC50 versus phospho-tyrosine formation in KDR
T2 construct: phosphorylation of KDR expressed in human umbilical vein endothelial cells (HUVECs); host or cells: HUVECs
Protocol: (c) In Vitro phospho-KDR ELISA Assay
This assay uses a conventional ELISA method to determine the ability of test compounds to inhibit phosphorylation of tyrosine in KDR (VEGFR2).
Human umbilical vein endothelial cells (HUVECs; PromoCell) were routinely incubated at 37° C. with 7.5% CO2 in ‘growth medium’ comprising MCDB 131 (Gibco Catalogue No. 10372-019; 500 ml) containing L-glutamine (Sigma Catalogue No. G3126; 0.848 g), 1% Penicillin Streptomycin (Gibco Catalogue No. 15140-122) and Fetal Bovine Serum (PAA Laboratories Catalogue No. A15-043; 50 ml).
For the assay, the cells were detached from the culture flask using a trypsin/ethylenediaminetetraacetic acid (EDTA) mixture (Invitrogen Ltd.; Catalogue No. 15400-054) and resuspended in ‘test medium’ comprising MCDB 131 (500 ml) containing L-glutamine (0.848 g), 1% Penicillin Streptomycin and Fetal Bovine Serum (10 ml). Aliquots (1 ml) were seeded into each well of a 24 well tissue culture plate (Corning Life Sciences; Catalogue No. 3527) to give a density of approximately 3.5×10^4 cells per well. The cells were incubated overnight at 37° C. with 7.5% CO2 to allow adherence to the well surface. The following morning the assay medium was decanted and an aliquot (0.5 ml) of ‘serum free medium’ comprising MCDB 131 (500 ml) containing L-glutamine (0.848 g) and 1% Penicillin Streptomycin was added to each well. The plates were incubated at 37° C. for 2.5 hours.
Test compounds were prepared as 10 mM stock solutions in DMSO and serially diluted with DMSO as required. Aliquots (3 μl) of each concentration of test compound were diluted with ‘serum free medium’ (300 μl). Aliquots (50 μl) of each resultant compound concentration were added to the cells in each well. “Maximum” control cells received only a dilution of DMSO whereas the “minimum” controls received a reference KDR inhibitor to give a final concentration of 1 μM. The cells were incubated for 90 minutes at 37° C. with 7.5% CO2.
The resultant cells were stimulated with VEGF using the following procedure. A lyophilised powder of VEGF (Sigma-Aldrich; Catalogue No. V7259) was mixed with PBS containing 0.1% filter-sterilised BSA (0.1% BSA/PBS) to provide a stock solution of 10 μg/ml of VEGF. A dilution of this stock solution into ‘serum free medium’ provided a 1000 ng/ml VEGF solution. Aliquots thereof (50 μl) were added to all wells. The cells were incubated at 37° C. with 7.5% CO2 for 5 minutes. The solution from the wells was removed and the cells were lysed by the addition of 100 μl/well of RIPA buffer comprising 60 mM Tris-HCl, 150 mM sodium chloride, 1 mM EDTA, 1% v/v Igepal CA-630, 0.25% sodium deoxycholate, 1% v/v phosphatase inhibitor cocktail 1 P2850, 1% phosphatase inhibitor cocktail 2 P5726 and 0.5% v/v protease inhibitor cocktail P8340. […]

T1 sequence (P09619 33-1106): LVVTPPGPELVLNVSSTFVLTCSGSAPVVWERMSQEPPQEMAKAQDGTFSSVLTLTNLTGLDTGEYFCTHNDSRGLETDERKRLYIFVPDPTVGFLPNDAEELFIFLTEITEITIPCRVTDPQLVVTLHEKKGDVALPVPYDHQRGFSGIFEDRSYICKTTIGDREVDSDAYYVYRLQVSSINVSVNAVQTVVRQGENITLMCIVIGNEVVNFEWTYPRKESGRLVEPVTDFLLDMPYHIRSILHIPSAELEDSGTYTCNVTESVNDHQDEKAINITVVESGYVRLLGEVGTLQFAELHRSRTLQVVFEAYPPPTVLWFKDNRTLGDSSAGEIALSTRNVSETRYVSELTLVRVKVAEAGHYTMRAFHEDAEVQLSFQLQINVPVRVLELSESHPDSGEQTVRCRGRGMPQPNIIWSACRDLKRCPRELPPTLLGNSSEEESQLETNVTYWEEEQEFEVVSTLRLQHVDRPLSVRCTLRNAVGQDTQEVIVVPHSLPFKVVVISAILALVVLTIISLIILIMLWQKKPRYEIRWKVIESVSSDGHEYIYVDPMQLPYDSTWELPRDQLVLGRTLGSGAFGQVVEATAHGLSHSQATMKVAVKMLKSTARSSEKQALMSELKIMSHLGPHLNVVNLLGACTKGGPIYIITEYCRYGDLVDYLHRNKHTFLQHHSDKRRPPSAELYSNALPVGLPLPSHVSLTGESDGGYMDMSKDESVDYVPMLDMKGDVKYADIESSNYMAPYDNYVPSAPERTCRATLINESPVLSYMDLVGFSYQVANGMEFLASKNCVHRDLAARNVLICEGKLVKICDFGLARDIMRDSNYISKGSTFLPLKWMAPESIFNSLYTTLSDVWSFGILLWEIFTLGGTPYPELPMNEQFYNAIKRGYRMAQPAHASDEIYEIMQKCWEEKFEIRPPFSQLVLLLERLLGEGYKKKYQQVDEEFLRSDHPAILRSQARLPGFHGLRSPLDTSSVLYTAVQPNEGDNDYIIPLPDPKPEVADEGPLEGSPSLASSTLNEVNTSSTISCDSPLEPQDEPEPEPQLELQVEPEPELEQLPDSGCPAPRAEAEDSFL
T2 sequence (P35968 20-1356): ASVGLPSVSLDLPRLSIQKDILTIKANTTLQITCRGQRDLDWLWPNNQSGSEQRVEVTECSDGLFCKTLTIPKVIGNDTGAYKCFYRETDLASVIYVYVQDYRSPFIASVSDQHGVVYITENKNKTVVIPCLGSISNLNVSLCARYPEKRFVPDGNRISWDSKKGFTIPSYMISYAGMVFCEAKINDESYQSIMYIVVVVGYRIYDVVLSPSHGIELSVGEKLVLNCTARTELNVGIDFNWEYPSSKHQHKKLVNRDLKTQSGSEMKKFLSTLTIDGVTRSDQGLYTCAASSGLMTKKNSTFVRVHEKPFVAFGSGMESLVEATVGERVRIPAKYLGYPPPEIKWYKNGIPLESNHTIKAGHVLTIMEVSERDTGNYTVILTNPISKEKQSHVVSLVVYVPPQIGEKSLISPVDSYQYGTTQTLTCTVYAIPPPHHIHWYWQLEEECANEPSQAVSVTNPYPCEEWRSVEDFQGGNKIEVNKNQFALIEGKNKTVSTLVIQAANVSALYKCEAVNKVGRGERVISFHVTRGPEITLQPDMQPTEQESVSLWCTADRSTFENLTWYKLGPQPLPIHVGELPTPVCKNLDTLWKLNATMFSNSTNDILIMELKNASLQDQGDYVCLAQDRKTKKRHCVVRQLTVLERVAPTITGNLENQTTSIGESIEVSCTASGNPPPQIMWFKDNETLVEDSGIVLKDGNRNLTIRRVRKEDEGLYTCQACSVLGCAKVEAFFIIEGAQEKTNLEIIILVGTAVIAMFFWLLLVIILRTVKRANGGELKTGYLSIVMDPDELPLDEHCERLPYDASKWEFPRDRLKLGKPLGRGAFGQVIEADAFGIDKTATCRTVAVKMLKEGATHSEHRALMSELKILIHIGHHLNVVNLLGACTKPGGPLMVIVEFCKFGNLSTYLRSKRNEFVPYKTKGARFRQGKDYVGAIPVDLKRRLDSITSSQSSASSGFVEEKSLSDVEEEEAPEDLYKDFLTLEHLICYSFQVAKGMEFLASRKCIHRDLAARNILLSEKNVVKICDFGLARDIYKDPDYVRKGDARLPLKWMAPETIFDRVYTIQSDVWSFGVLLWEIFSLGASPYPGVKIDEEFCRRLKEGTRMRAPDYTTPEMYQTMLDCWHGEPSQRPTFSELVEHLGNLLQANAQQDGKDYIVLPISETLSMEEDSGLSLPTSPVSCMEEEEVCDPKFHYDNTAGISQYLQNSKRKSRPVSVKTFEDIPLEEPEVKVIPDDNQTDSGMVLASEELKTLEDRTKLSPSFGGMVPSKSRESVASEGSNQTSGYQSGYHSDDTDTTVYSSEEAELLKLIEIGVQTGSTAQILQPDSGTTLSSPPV

Structure (SMILES) | IC50 [1] | IC50 [2]
CCn1cc(NC(=O)Cc2ccc(Oc3ncnc4cc(OC)c(OC)cc34)cn2)cn1 [N-(1-ethyl-1H-pyrazol-4-yl)-2-[5-(6,7-dimethoxyquinazolin-4-yloxy)pyridin-2-yl]acetamide] | ~25 nM | 
COc1cc2ncnc(Oc3ccc(CC(=O)Nc4cc(C)on4)nc3)c2cc1OC [N-(5-methylisoxazol-3-yl)-2-[5-(6,7-dimethoxyquinazolin-4-yloxy)pyridin-2-yl]acetamide] | ~25 nM | ~300 nM
CCn1cc(NC(=O)Cc2ncc(Oc3ncnc4cc(OC)c(OC)cc34)cc2OC)cn1 [Example 7, N-(1-ethyl-1H-pyrazol-4-yl)-2-[5-(6,7-dimethoxyquinazolin-4-yloxy)-3-methoxypyridin-2-yl]acetamide] | ~10 nM | > 3000 nM

Now those with a lower IC50 [1], led by results:

IC50 [1] | IC50 [2] | Structure (SMILES)
~5 nM | ~2 nM | COc1cc2ncnc(Oc3ccc(CC(=O)Nc4nc(C)c(C)s4)nc3)c2cc1OC [Example 1, N-(4,5-dimethylthiazol-2-yl)-2-[5-(6,7-dimethoxyquinazolin-4-yloxy)pyridin-2-yl]acetamide]
~5 nM | > 5000 nM | COc1cc2ncnc(Oc3cnc(CC(=O)Nc4cnn(C(C)C)c4)c(OC)c3)c2cc1OC [Example 8, N-(1-isopropyl-1H-pyrazol-4-yl)-2-[5-(6,7-dimethoxyquinazolin-4-yloxy)-3-methoxypyridin-2-yl]acetamide]
